Assay results: US20100120690A1, “Polypeptides Having Antimicrobial Activity and Polynucleotides Encoding Same” (Novozymes Adenium Biotech A/S, priority 2005, published 2010)

system: Staphylococcus carnosus ATCC51365; test: Yeast screening assay: radial diffusion assay of yeast supernatants; assay type: cell-based; design: key: An activity of 3 is better than Plectasin; An activity of 2 corresponds to the activity of Plectasin; 1 is worse than Plectasin; details: yeast supernatant, clearing zone in radial diffusion assay
Experimental: A range of antimicrobial polypeptides, which are variants of SEQ ID NO: 1 (Plectasin), were tested for antimicrobial activity by expressing them in S. cerevisae and screening the supernatant of the yeast transformants for antimicrobial activity against Staphylococcus carnosus ATCC51365.
Radial Diffusion Assay was carried out as described in Methods in Molecular Biology, Vol. 78, Antibacterial peptide protocol, William M. Shafer, Human Press.
200-300 yeast transformant colonies were plated on 14 cm round plates containing 25 mL SC growth medium supplemented with 1.5% galactose, 0.5% glucose and 1.5% agarose. Plates were incubated for three hours at room temperature, overlaid with 25 mL of the same growth medium and allowed to grow for three days at 30° C. Then the plates were overlaid with 25 mL of LB growth medium containing 1.5% agarose and 10^5 cells of the indicator strain Staphylococcus carnosus and incubated at 30° C. overnight to allow growth of the bacterial cells. Next day, the plates were stained with 1.5 mM MTT to facilitate visualization of the clearing zones.
Yeast colonies creating clearing zones were transferred to microtiter plates containing 200 micro-L of SC growth medium supplemented with 2% glucose and ampicillin (100 mg/L). Such plates designated “master plates” were incubated for 2 days at 30° C. with shaking at 450 rpm to allow yeast growth.
10 micro-L SC growth medium from each well of the master plates were transferred to new microtiter plates containing 200 micro-L SC growth medium with 1.5% galactose and 0.5% glucose. These plates were called daughter plates and were incubated for 3 days at 30° C. under 450 rpm shaking to allow yeast growth and peptide synthesis.
Finally a Radial Diffusion Assay (RDA) was performed following the protocol described in Methods in Molecular Biology to analyse and quantify the antimicrobial activity of the yeast supernatants against S. carnosus.
Briefly, 30 mL of minimal underlay medium containing 1% agarose and 5×10^5 cfu/mL of S. carnosus was poured in an omnitray plate (Nunc, 242811). A Nunc TSP plate (#445497) was inserted immediately on the plate to allow a 96 well pattern formation. Once the media had solidified, the TSP plate was removed and 10 micro-L of yeast supernatant samples were applied on the holes. Plates were incubated 3 hours at 37° C. and overlaid with 15 mL of LB agar growth medium. Finally, plates were incubated overnight at 37° C. and coloured with 1.5 mM MTT to visualize the clearing zones.
Inspection and measurements of the clearing zones was performed on the plates. The corresponding yeast clones resulting in clearing zones of similar or increased size than the clones encoding for wild type plectasin were picked from the master plates and transferred to agar plates containing SC growth medium with 2% glucose and ampicillin (100 mg/L). Such plates were incubated for further 2 days at 30° C. to allow yeast growth. Subsequently, colony PCR was performed followed by sequence analysis to identify amino acid changes in the plectasin sequence.
An activity of 2 corresponds to the activity of Plectasin. An activity of 3 is better than Plectasin, and 1 is worse than Plectasin.

Sequence	Activity (antimicrobial activity relative to the activity of plectasin)
GFGCNGPWQEDDMQCHNHCKSIKGYKGGYCAKGGFVCKCY [Mutation D9Q]	3
GIGCNGPWDEDDMQCHNHCKSIKGYKGGYCAKGGFVCKCY [Mutation F2I]	2
GFGCNGPWDEDDLQCHNHCKSIKGYKGGYCAKGGFVCKCY [Mutation M13L]	2
GFGCNGPWDEHDMQCHNHCKSIKGYKGGYCAKGGFVCKCY [Mutation D11H]	3
GFGCNGPWDEDDMQCHNHCKSIKGYKGGYCAKQGFVCKCY [Mutation G33Q]	3
GFGCNGPWDEDDMQCHNHCKSIKGYKGGLCAKGGFVCKCY [Mutation Y29L]	2
GFGCNGPRDEDDMQCHNHCKSIKGYKGGYCAKGGFVCKCY [Mutation W8R]	3
GFGCNGPWDEDDMQCHNHCKSIKGYKGGYCAKGGMVCKCY [Mutation F35M]	2
GFGCNGPWDEDDMQCHNHCKSIKGYKGGMCAKGGFVCKCY [Mutation Y29M]	2
GFGCNGPWDEDDMQCHNHCKSIKGYKGGYCAKGGFVCNCY [Mutation K38N]	2
GFGCNGPWDEGDMQCHSHCKSIKGYKGGYCAKGGFVCKCY [D11G + N17S]	3
GFGCNGPWDEDDMQCHNHCKSIKGYKGGACAKGGFVCKCY [Mutation Y29A]	2
GFGCNGPWDEDDMQCHNHCKSIKNYKGGYCAKGGFVCKCY [Mutation G24N]	3
GFGCNGRWDEDDMQCHNHCKSIKGYKGGYCAKGGFVCKCY [Mutation P7R]	3
GFGCNGPRDEDDRQCHNHCKSIKGYKGGYCAKGGFVCKCY [W8R + M13R]	3
GFGCNGPWDEDDMMCHNHCKSIKGYKGGYCAKGGFVCKCY [Mutation Q14M]	2
GFGCNGPWDERDMQCHNHCKSIKGYKGGYCAKGGFVCKCY [Mutation D11R]	3
GFGCNGPWDEDDMQCHNHCKSIKGYFGGYCAKGGFVCKCY [Mutation K26F]	2
GFGCNGPWAEDDMQCHNHCKSIKGYKGGYCAKGGFVCKCY [Mutation D9A]	3
GFGCQGPWDEDDMQCHNHCKSIKGYKGGYCAKGGFVCKCY [Mutation N5Q]	3
GFGCNGKWDEDDMQCHNHCKSIKGYKGGYCAKGGFVCKCY [Mutation P7K]	3
GFGCNGPWDEDDMQCHNHCKSIKGYKGGYCAKGGFTCKCY [Mutation V36T]	3
GFGCNGPWDSDDMQCHNHCKSIKGYKGGYCAKGGFVCKCY [Mutation E10S]	3
GFGCNGPWDEDDMQCHNHCKSIKGYHGGYCAKGGFVCKCY [Mutation K26H]	2
GFGCNGPWDEDDMQCHNHCKSIKGYKGGYCSKGGFVCKCY [Mutation A31S]	2
GFGCNGPWDEDDMQCHNHCKSIKGNKGGYCAKGGFVCKCY [Mutation Y25N]	2
GFGCNGPWREDDMQCHNHCKSIKGYKGGYCAKGGFVCKCY [Mutation D9R]	2

Sequence	Activity (antimicrobial activity relative to the activity of plectasin)
GFGCNGPWDEDDMQCHNHCKSIKGYKGGYCEKGGFVCKCY [Mutation A31E]	2
GFGCKGPWDEGDMQCHNHCKSIKGYKGGYCAKGGFVCKCY [N5K + D11G]	3
GFGCNGPWDEDDMQCHNFCKSIKGYKGGYCAKGGFVCKCY (Synthetic antimicrobial polypeptide) [Mutation H18F]	2
GFGCNGPWDETDMQCHNHCKSIKGYKGGYCAKGGFVCKCY [Mutation D11T]	3
GFGCNGPWDEDDMQCHNHCKSIKGYKGGYCKKGGFVCKCY [Mutation A31K]	3
GFGCNGPWDEDDMQCHNHCKSIKGYKGGYCAKGGFVCHCY [Mutation K38H]	2
GFGCNGPWDCDDMQCHNHCKSIKGYKGGYCAKGGFVCKCY [Mutation E10C]	2
GFGCNGPWDEDDMWCHNHCKSIKGYKGGYCAKGGFVCKCY [Mutation Q14W]	2
GFGCVGPWDEDDMQCHNHCKSIKGYKGGYCAKGGFVCKCY [Mutation N5V]	3
GFGCNGPWDEMDMQCHNHCKSIKGYKGGYCAKGGFVCKCY [Mutation D11M]	3
GFGCNGPWDEDDMQCHNHCKSIKGYKGGYCAKGGWVCKCY [Mutation F35W]	2
GFGCNGPWDEKDMQCHNHCKSIKGYKGGYCAKGGFVCKCY [Mutation D11K]	3
GFGCNGPWDEDDMQCHNHCKSIKGYKGGYCAKGWFVCKCY [Mutation G34W]	2
GFGCNGPWDADDMQCHNHCKSIKGYKGGYCAKGGFVCKCY [Mutation E10A]	2
GFGCNGPWDEDDMQCHNHCKSIKGYKGGYCATGGFVCKCY [Mutation K32T]	2
GFGCNGPWDEDDMQCHNHCKSIKGYKGGFCARGGFVCKCY [Y29F + K32R]	2
GFGCNGPWDEDDMQCHNHCKSLKGYKGGYCAKGGFVCKCY [Mutation I22L]	3
GFGCNGPWDEDDMQCHNHCQSIKGYKGGYCAKGGFVCKCY [Mutation K20Q]	2
GFGCNGPWYEDDMQCHNHCKSIKGYKGGYCAKGGFVCKCY [Mutation D9Y]	3
GFGCNGPWMEDDMQCHNHCKSIKGYKGGYCAKGGFVCKCY [Mutation D9M]	3
GFGCNGPWDEDDRQCHNHCKSIKGYKGGFCAKGGFVCKCY [M13R + Y29F]	2
GFGCNGPWDEDDMQCHNHCKSMKGYKGGYCAKGGFVCKCY [Mutation I22M]	2
GFGCNGPWDEDDFQCHNHCKSIKGYKGGYCAKGGFVCKCY [Mutation M13F]	2
GFGCNGPWDELDMQCHNHCKSIKGYKGGYCAKGGFVCKCY [Mutation D11L]	3
GFGCNGPWDEDDMQCHNHCKSIKGYKGGYCTKGGFVCKCY [Mutation A31T]	3
GFGCNGPWDEDPMQCHNHCKSIKGYKGGYCAKGGFVCKCY [Mutation D12P]	2
